The values below come from ChEMBL document CHEMBL5143514, “Investigation of chalcogen bioisosteric replacement in a series of heterocyclic inhibitors of tryptophan 2,3-dioxygenase” (Eur J Med Chem, 2022).

Active and inactive are the calls of the source.

The nature of data set [1]: Cytotoxicity against HEK293 cells assessed as reduction in cell viability measured after 24 hrs by MTS assay. The data set is classed as toxicity, cell-based. The settings on record: human, read-out: LD50. In general terms: Tetrazolium dyes change colour on reduction, which living cells bring about.
Data set [2] can be described thus: Cytotoxicity against HEK293 cells assessed as reduction in cell viability measured after 6 hrs by MTS assay. The class given is toxicity, cell-based. Conditions: human, read-out: LD50.
Data set [3] is described as follows: Metabolic stability in liver microsomes assessed as half life at 10 uM measured upto 24 hrs in the presence of NADPH by UPLC analysis. The class given is ADME, Microsome. (In general: Microsomes from liver hold many membrane-bound enzymes, among them those of drug oxidation.)
The target of data set [4] is T1, Tryptophan 2,3-dioxygenase (Homo sapiens, UniProt P48775). Nature of the data set: Inhibition of human TDO2 expressed in mouse P815B cells using L-tryptophan as substrate incubated for 7 hrs by UPLC analysis. The class given is cell-based.
T1 sequence (P48775 whole entry): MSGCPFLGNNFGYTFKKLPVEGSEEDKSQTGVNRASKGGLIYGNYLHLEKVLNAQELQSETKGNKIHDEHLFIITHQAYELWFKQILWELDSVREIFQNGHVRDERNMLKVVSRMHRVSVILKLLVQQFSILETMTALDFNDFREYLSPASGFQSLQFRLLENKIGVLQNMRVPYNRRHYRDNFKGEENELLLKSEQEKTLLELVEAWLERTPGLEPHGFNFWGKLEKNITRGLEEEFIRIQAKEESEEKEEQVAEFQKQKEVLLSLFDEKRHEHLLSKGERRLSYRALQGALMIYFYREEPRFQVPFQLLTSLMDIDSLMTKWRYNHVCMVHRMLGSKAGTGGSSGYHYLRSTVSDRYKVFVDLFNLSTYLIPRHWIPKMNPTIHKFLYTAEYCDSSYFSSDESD
A short description of data set [5]: Cytotoxicity against mouse P815B cells assessed as reduction in cell viability measured after 24 hrs by MTS assay. The class given is functional. Conditions: read-out: LD50 (the source's name).
Data set [6] has as its system A 172. Nature of the data set: Cytotoxicity against human A 172 cells assessed as reduction in cell viability measured after 6 hrs by MTS assay. The class given is functional. Conditions: read-out: LD50 (the source's name).
Data set [7] can be described thus: Cytotoxicity against mouse P815B cells assessed as reduction in cell viability measured after 6 hrs by MTS assay. The settings on record: read-out: LD50 (the source's name). The class given is functional.
The target in data set [8] is T2, Indoleamine 2,3-dioxygenase 1 (Homo sapiens, UniProt P14902). Put plainly: Inhibition of human IDO1 in potassium phosphate buffer at pH 6.5 using L-tryptophan as substrate incubated for 8 mins.
T2 sequence (P14902 whole entry): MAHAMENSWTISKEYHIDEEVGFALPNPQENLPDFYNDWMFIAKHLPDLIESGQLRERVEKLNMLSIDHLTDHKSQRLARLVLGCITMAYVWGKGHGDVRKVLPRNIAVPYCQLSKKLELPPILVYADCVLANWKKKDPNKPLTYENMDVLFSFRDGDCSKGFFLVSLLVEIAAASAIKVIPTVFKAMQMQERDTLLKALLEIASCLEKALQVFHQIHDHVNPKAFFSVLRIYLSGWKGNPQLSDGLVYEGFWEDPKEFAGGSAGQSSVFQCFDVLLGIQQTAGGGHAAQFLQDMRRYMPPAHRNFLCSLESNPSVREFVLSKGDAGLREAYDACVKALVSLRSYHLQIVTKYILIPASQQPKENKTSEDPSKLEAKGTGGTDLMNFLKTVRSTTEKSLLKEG
Data set [9] concerns the target T1, Tryptophan 2,3-dioxygenase. Nature of the data set: Inhibition of human TDO2 expressed in Escherichia coli BL21-DE3 rosetta cells at pH 6.5 potassium phosphate buffer using L-tryptophan as substrate measured after 15 mins.
Data set [10] concerns the target T2, Indoleamine 2,3-dioxygenase 1. Put plainly: Inhibition of human IDO1 expressed in mouse P815B cells using L-tryptophan as substrate incubated for 24 hrs by UPLC analysis. The class given is cell-based.
A short description of data set [11]: Lipophilicity, logKw of compound in methanol and water buffer at pH 2.3 by HPLC-UV analysis. The data set is classed as physicochemical.
Data set [12] deals with A 172. Put plainly: Cytotoxicity against human A 172 cells assessed as reduction in cell viability measured after 24 hrs by MTS assay. The data set is classed as functional. Conditions: read-out: LD50 (the source's name).
Data set [13] relates to P815B. Nature of the data set: Cytotoxicity against mouse P815B cells assessed as reduction in cell viability at 30 uM measured after 24 hrs by MTS assay. The data set is classed as functional, cell-based.
Data set [14] deals with P815B. Nature of the data set: Induction of ROS generation in mouse P815B cells assessed as increase in H2O2 concentration at high concentration measured upto 6 hrs by bioluminescent ROS-Glo H2O2 assay. The class given is functional, cell-based.
The nature of data set [15]: Induction of apoptosis in mouse P815B cells assessed as necrotic cells at 10 uM measured after 24 hrs by Annexin V-FITC/PI staining based flow cytometry method relative to control. The class given is functional. Background: Flow cytometry measures light scatter and fluorescence of single cells or particles in a stream.
Data set [16] can be described thus: Induction of cell cycle arrest in mouse P815B cells assessed as accumulation of cells at G2 phase at 5 uM measured after 24 hrs by PI staining based flow cytometry method (reference value: 14.6%). The class given is functional.
A short description of data set [17]: Induction of apoptosis in mouse P815B cells assessed as viable cells at 5 uM measured after 24 hrs by Annexin V-FITC/PI staining based flow cytometry method relative to control. Conditions: read-out: Activity. The class given is functional.
Data set [18] can be described thus: Induction of apoptosis in mouse P815B cells assessed as late apoptotic cells at 10 uM measured after 24 hrs by Annexin V-FITC/PI staining based flow cytometry method relative to control. The class given is functional.
Data set [19] can be described thus: Induction of cell cycle arrest in mouse P815B cells assessed as accumulation of cells at S phase at 5 uM measured after 24 hrs by PI staining based flow cytometry method (reference value: 45.0%). The class given is functional.
The nature of data set [20]: Induction of apoptosis in mouse P815B cells assessed as early apoptotic cells at 1 uM measured after 24 hrs by Annexin V-FITC/PI staining based flow cytometry method relative to control. The class given is functional.
Data set [21] can be described thus: Induction of apoptosis in mouse P815B cells assessed as viable cells at 1 uM measured after 24 hrs by Annexin V-FITC/PI staining based flow cytometry method relative to control. Conditions: read-out: Activity. The class given is functional.
Data set [22] in a line: Induction of apoptosis in mouse P815B cells assessed as necrotic cells at 5 uM measured after 24 hrs by Annexin V-FITC/PI staining based flow cytometry method relative to control. The data set is classed as functional.
The nature of data set [23]: Induction of cell cycle arrest in mouse P815B cells assessed as accumulation of cells at G1 phase at 5 uM measured after 24 hrs by PI staining based flow cytometry method (reference value: 42.8%). The class given is functional.
Data set [24] is described as follows: Induction of apoptosis in mouse P815B cells assessed as viable cells at 10 uM measured after 24 hrs by Annexin V-FITC/PI staining based flow cytometry method relative to control. The settings on record: read-out: Activity. The data set is classed as functional.
The nature of data set [25]: Induction of apoptosis in mouse P815B cells assessed as necrotic cells at 1 uM measured after 24 hrs by Annexin V-FITC/PI staining based flow cytometry method relative to control. The class given is functional.
A short description of data set [26]: Induction of apoptosis in mouse P815B cells assessed as late apoptotic cells at 1 uM measured after 24 hrs by Annexin V-FITC/PI staining based flow cytometry method relative to control. The class given is functional.
The nature of data set [27]: Induction of apoptosis in mouse P815B cells assessed as apoptotic cells at 10 uM measured after 6 hrs by Annexin V-FITC/PI staining based flow cytometry method relative to control. The data set is classed as functional.
Data set [28] is described as follows: Induction of apoptosis in mouse P815B cells assessed as early apoptotic cells at 5 uM measured after 24 hrs by Annexin V-FITC/PI staining based flow cytometry method relative to control. The class given is functional.
The nature of data set [29]: Induction of apoptosis in mouse P815B cells assessed as early apoptotic cells at 10 uM measured after 24 hrs by Annexin V-FITC/PI staining based flow cytometry method relative to control. The class given is functional.
Data set [30] is described as follows: Induction of apoptosis in mouse P815B cells assessed as late apoptotic cells at 5 uM measured after 24 hrs by Annexin V-FITC/PI staining based flow cytometry method relative to control. The data set is classed as functional.
Data set [31] in a line: Induction of apoptosis in mouse P815B cells assessed as necrotic cells at 10 uM measured after 6 hrs by Annexin V-FITC/PI staining based flow cytometry method relative to control. The data set is classed as functional.

One may read the half-life as the time needed for the level to fall by half in the phase considered. What is called IC50 is the concentration at which inhibition is half-maximal. Low values mean greater potency, high ones weaker potency. Regarding `c1ccc2c(-c3ccc4nsnc4c3)c[nH]c2c1`, the CC50 at 24 h in data set [1] is more than 80 µM. Besides, the CC50 at 6 h in data set [2] was more than 80 µM. The half-life at 10 µM in data set [3] was found to be 35.6 min. Also, the 50% inhibitory concentration (IC50) was 0.129 µM in [4], more than 100 µM in data set [8], 3 µM in data set [9] and more than 100 µM in [10]. Further, the CC50 in data set [5] came to 10 µM; with A 172 [6], 30 µM; in data set [7], 30 µM; in the data set on A 172 [12], 30 µM. This compound also yielded a logKw in [11] of 4.

`c1ccc2c(-c3cnc4nsnc4c3)c[nH]c2c1`: the CC50 at 24 h in data set [1] is more than 80 µM. For the same compound, in data set [2], the CC50 at 6 h is more than 80 µM. In data set [3], the half-life at 10 µM amounted to 22 min. In addition, the IC50 in data set [4] was 0.082 µM; in data set [8], more than 100 µM; in data set [9], 4.7 µM; in data set [10], more than 100 µM. Besides, the CC50 was 30 µM in data set [5], more than 80 µM with A 172 [6], more than 80 µM in data set [7] and more than 80 µM in the data set with A 172 [12]. This compound gave a logKw in data set [11] of 3.3. Besides, the Activity entry in the data set on P815B [13] was “Toxic”.

On to `c1ccc2c(-c3cnc4n[se]nc4c3)c[nH]c2c1`, for which the CC50 at 24 h in [1] was more than 80 µM. The CC50 at 6 h in [2] was more than 80 µM. Moreover, in data set [3], the half-life at 10 µM was 28.3 min. Also, the outcome in the data set on P815B [14] was Active. The IC50 in [4] was 0.171 µM; in [8], more than 100 µM; in [9], 4.5 µM; in [10], more than 100 µM. Moreover, the CC50 in data set [5] was 30 µM; in the data set on A 172 [6], more than 80 µM; in data set [7], more than 80 µM; with A 172 [12] it was more than 80 µM. Moreover, in [11], the logKw was determined as 2.9. Further, in the data set on P815B [13], the Activity result was “Toxic”.

`c1ccc2c(-c3ccc4n[se]nc4c3)c[nH]c2c1`: the Activity in data set [15] came out at 0.55%; in data set [16] it was 11.6%; in data set [18] it was 44.1%; in [19] it was 41.3%; in data set [20] it was 1.15%; in data set [22], 1.46%. The Activity in [23] is given as 47.3%; in [25] it was 1.24%; in [26] it was 16.6%; in data set [27], 30.4%; in data set [28], 5.19%; in data set [29], 2.64%. The Activity in [30] amounted to 14.2%; in data set [31] it was 27.6%. For the same compound, the CC50 at 24 h in [1] is 10 µM. Further, the viability at 5 µM in data set [17] was found to be 79.2%. The CC50 at 6 h in data set [2] was 30 µM. For the same compound, in data set [3], the half-life at 10 µM was 70.2 min. In the data set with P815B [14], the result was Active. Also, in data set [21], the viability at 1 µM was found to be 81%. For the same compound, the IC50 in data set [4] was 0.094 µM; in [8] it was more than 100 µM; in data set [9], 2.5 µM; in data set [10] it was more than 100 µM. In [24], the viability at 10 µM was 52.7%. For the same compound, the CC50 is 3 µM in data set [5], 30 µM in the data set with A 172 [6], 30 µM in data set [7] and 30 µM in the data set on A 172 [12]. Moreover, in [11], the logKw is listed as 3.5.

With `c1ccc2c(-c3ccc4nonc4c3)c[nH]c2c1`, the CC50 at 24 h in [1] is more than 80 µM. Also, the CC50 at 6 h in [2] was more than 80 µM. In addition, the half-life at 10 µM in [3] worked out at 24.6 min. Further, the IC50 was 0.051 µM in [4], more than 100 µM in data set [8], 3.4 µM in [9] and more than 100 µM in data set [10]. For the same compound, the CC50 amounted to 10 µM in data set [5], 30 µM with A 172 [6], 10 µM in [7] and 30 µM in the data set with A 172 [12]. This compound also had a logKw in [11] of 4.1.
